These results are taken from BindingDB's records for doi:10.1096/fasebj.10.12.8903510 (Roche Bioscience, 1996).

Sequence of 5-hydroxytryptamine receptor 4 (O70528 whole entry): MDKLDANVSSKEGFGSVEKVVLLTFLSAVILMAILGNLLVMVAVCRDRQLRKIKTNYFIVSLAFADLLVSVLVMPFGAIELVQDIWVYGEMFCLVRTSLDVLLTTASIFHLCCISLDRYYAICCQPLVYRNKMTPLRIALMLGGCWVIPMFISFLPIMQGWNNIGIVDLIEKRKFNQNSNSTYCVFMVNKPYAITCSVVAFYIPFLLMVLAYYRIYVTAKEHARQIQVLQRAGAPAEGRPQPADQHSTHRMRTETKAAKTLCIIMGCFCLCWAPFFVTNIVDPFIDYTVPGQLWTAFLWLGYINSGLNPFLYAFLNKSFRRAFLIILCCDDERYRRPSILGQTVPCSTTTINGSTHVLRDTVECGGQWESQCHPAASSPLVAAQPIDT

This assay addresses 5-hydroxytryptamine receptor 4 (Cavia porcellus, UniProt O70528).
Take `CCCCN1CCC(CNC(=O)c2c3n(c4ccccc24)CCCO3)CC1` [SB-207266]: the Ki (usually a dissociation constant, usually derived from enzyme kinetics or from competition with a known ligand) was found to be 0.39 nM.

Compound `CCN(CC)CCOC(=O)c1cc(Cl)c(N)cc1OC` [SDZ-205557] displayed a Ki of 2.51 nM. The figure for `COc1cc(N)c(Cl)cc1C(=O)OCCCN1CCCCC1` is 3.98 nM; for `COc1cc(COc2cc(N)c(Cl)cc2C(=O)CCCCN2CCCCC2)cc(OC)c1` [RS-67532] it is 1.99 nM.

`Cn1cc(C(=O)OCC2CCN(CCNS(C)(=O)=O)CC2)c2ccccc21` [GR 113808] showed a Ki of 0.06 nM.

In turn, `CCCCN1CCC(COC(=O)c2cc(Cl)c(N)c3c2OCCO3)CC1` [CAS_121881] came in with a Ki of 0.01 nM. In turn, `COc1[nH]c2ccc(F)cc2c1C(=O)OCC1CCN(CCNS(C)(=O)=O)CC1` [GR-125487] showed an inhibition constant Ki of 0.03 nM.
